Measured values as given in PubChem BioAssay (NCI).
Several values for one entry are separate records, joined by “and”; a condition that tells them apart may be missing. Identical values can stand only once.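 In this assay, cells in 96-well plates receive the compound at five concentrations for 48 hours. Endpoints are linearly interpolated between the surrounding concentrations. GI50: concentration for 50% inhibition of growth. TGI is the concentration that stops growth completely.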

Tests used:
Assay in all cases: DTP human tumour cell line panel, 48 h
SF-539 CNS = tested on: SF-539 CNS
SNB-19 CNS = tested on: SNB-19 CNS
KM12 colon = tested on: KM12 colon
RXF 393 renal = tested on: RXF 393 renal
COLO 205 colon = tested on: COLO 205 colon
NCI-H226 lung = tested on: NCI-H226 lung
MDA-MB-231 breast = tested on: MDA-MB-231 breast
RPMI-8226 leukemia = tested on: RPMI-8226 leukemia
CAKI-1 renal = tested on: CAKI-1 renal
NCI-H23 lung = tested on: NCI-H23 lung

Compound | TGI (SF-539 CNS) | TGI (SNB-19 CNS) | TGI (KM12 colon) | TGI (RXF 393 renal) | TGI (COLO 205 colon) | TGI (NCI-H226 lung) | TGI (MDA-MB-231 breast) | TGI (RPMI-8226 leukemia) | TGI (CAKI-1 renal) | TGI (NCI-H23 lung) | GI50 (SF-539 CNS) | GI50 (SNB-19 CNS) [µM] | GI50 (KM12 colon) [µM] | GI50 (RXF 393 renal) [µM] | GI50 (COLO 205 colon) [µM] | GI50 (NCI-H226 lung) [µM] | GI50 (MDA-MB-231 breast) | GI50 (RPMI-8226 leukemia) | GI50 (CAKI-1 renal) [µM] | GI50 (NCI-H23 lung)
N=C(N)n1cc(/C=N/N=C(N)N)cn1 | > 100 µM | > 100 µM | > 100 µM | > 100 µM | > 100 µM | > 100 µM | > 100 µM | > 100 µM | > 100 µM | > 100 µM | – | – | – | – | – | – | – | – | – | –
Oc1cn(-c2ccc(Cl)cc2)nc1-c1n[nH]c(=S)n1-c1ccc(F)cc1 | 34.9 µM | > 100 µM | > 100 µM | > 100 µM | > 100 µM | 90.2 µM | 60.1 µM | > 100 µM | > 100 µM | 33 µM | 15.1 µM | 61.9 | 13 | 28 | 61.4 | 26.6 | 10.2 µM | 22.2 µM | 40.5 | 15.7 µM
O=C(Nc1nc2ccc(S(=O)(=O)Nc3ccc(C4(C(F)(F)F)CC4)cc3)cc2[nH]1)c1cnccn1 | 10.4 µM | 22 µM | 14.4 µM | 4.28 µM | 17.5 µM | 9.51 µM | 19.4 µM | 5.39 µM | 16.2 µM | 15.8 µM | 2.35 µM | 4.24 | 1.03 | 1.12 | 2.84 | 2.08 | 5.32 µM | 1.16 µM | 4.19 | 2.2 µM
COC(=O)c1ccc(NC(N)=NCCC(C)(C)c2ccc(C(F)(F)F)cc2)nc1 | 3.53 µM | 11.5 µM | 9.12 µM | 5.06 µM | 3.41 µM | 18.8 µM | 3.34 µM | 4.26 µM | 14.2 µM | 11.5 µM | 1.74 µM | 3.3 | 2.65 | 2.18 | 1.7 | 3.33 | 1.76 µM | 1.65 µM | 2.8 | 2.15 µM
NC1=NC(c2ccccc2Cl)c2c(n[nH]c2N)N1 (configuration not stated) | > 100 µM | > 100 µM | > 100 µM | 97.6 µM | > 100 µM | > 100 µM | > 100 µM | > 100 µM | > 100 µM | > 100 µM | 57 µM | 39.7 | 29.4 | 13.7 | 23.9 | 38.4 | 5.95 µM | 42.9 µM | 10.9 | 20.3 µM
CCN(CC)CCNc1n[n+]([O-])c2cc([N+](=O)[O-])ccc2[n+]1[O-] | 2.57 µM and 1.36 µM and 1.38 µM | 6.34 µM and 6.43 µM and 5.58 µM | 2.72 µM and 2.99 µM and 2.41 µM | 5.14 µM and 4.28 µM and 3.03 µM | 2.5 µM and 1.74 µM and 2.12 µM | 8.82 µM and 7.74 µM and 7.8 µM | 6.33 µM and 3.15 µM and 4.26 µM | 1.77 µM and 1.72 µM and 1.02 µM | 1.79 µM and 2.7 µM and 1.97 µM | 1.55 µM and 1.58 µM and 1.94 µM | 0.809 µM and 0.402 µM and 0.355 µM | – | – | – | – | – | 1.76 µM and 0.425 µM and 0.975 µM | 0.27 µM and 0.285 µM and 0.122 µM | – | 0.117 µM and 0.275 µM and 0.146 µM
Cc1ccc2ccc3c4ccccc4ccc3c2c1 | > 100 µM | > 100 µM | 68.5 µM | 46.8 µM | 32.6 µM | > 100 µM | 47.9 µM | 59.2 µM | 63.7 µM | 96.5 µM | 47.7 µM | 26.7 | 21.6 | 20.1 | 18 | 30.3 | 17.4 µM | 21 µM | 20.9 | 22.4 µM
Cc1ccc(C(=O)Nc2ccc(Oc3cc4cnn(C)c4cc3-c3cn[nH]c3)c(F)c2)c(=O)n1-c1ccc(F)cc1 | > 100 µM | > 100 µM | > 100 µM | > 100 µM | > 100 µM | > 100 µM | > 78.1 µM | > 100 µM | > 100 µM | > 100 µM | 1.37 µM | > 100 | 0.0304 | 2.23 | 5.36 | 2.16 | 10.2 µM | > 48 µM | 3.25 | 8.97 µM
O=C(CI)NC(=O)NC(=O)NCc1ccccc1 | 4 µM | 31.9 µM | 24.9 µM | 9.31 µM | 4.64 µM | 20.4 µM | 15.7 µM | 9.71 µM | 3.12 µM | 19.5 µM | 1.92 µM | 13 | 10.9 | 2.98 | 2.13 | 4.53 | 3.9 µM | 3.2 µM | 1.69 | 4.32 µM
COC(=O)[C@]12CC[C@@H](C)[C@H](C)[C@@H]1C1=CC[C@@H]3[C@@]4(C)C(C=O)=C[C@@](C)(COS(C)(=O)=O)C4=CC[C@@]3(C)[C@]1(C)CC2 | 0.451 µM | 1.96 µM | – | 0.358 µM | 0.454 µM | 0.635 µM | 0.578 µM | 1.1 µM | – | 1.34 µM | 0.207 µM | 0.48 | – | 0.17 | 0.223 | 0.232 | 0.232 µM | 0.263 µM | – | 0.303 µM
CCCC(O)[C@@]1(CC)CC(C)C(O)(C2(C)C[C@H](C)[C@@H](C(CC)C(=O)C(C)[C@@H](O)[C@H](C)C3OC(O)(C(CC)C(=O)O)[C@@H](C)C(O)C3CC)O2)O1 (some centres not stated) | 2.76 µM | 3.15 µM | 2.06 µM | 1.61 µM | 0.83 µM | 2.99 µM | 2.11 µM | – | 5.05 µM | 2.28 µM | – | – | – | – | – | – | – | – | – | –
Nc1nc(Cl)c2ncn(Cc3ccc(C45CC6CC(CC(C6)C4)C5)c(OCc4cc(F)c(F)cc4F)c3)c2n1 | 14.8 µM | 46.6 µM | 9.13 µM | 2.66 µM | 22 µM | 21.9 µM | 9.81 µM | – | 5.48 µM | – | 4.18 µM | 6.48 | 2.93 | 0.677 | 4.22 | 5.69 | 2.58 µM | – | 2.37 | –
C/C(=C/CCC(C)[C@@H]1CC[C@]2(C)C3=C(CC[C@@]12C)[C@@]1(C)CCC(=O)C(C)(C)[C@@H]1CC3)C(=O)O (some centres not stated) | 2.93 µM | 2.68 µM | 2.3 µM | 3.08 µM | 3.6 µM | 4.56 µM | 3.15 µM | – | 2.14 µM | 2.37 µM | 1.37 µM | 1.17 | 0.747 | 1.51 | 1.86 | 1.46 | 1.53 µM | – | 0.753 | 0.885 µM
Nc1nc(-c2ccccc2)c(CC(=O)O)s1 | > 100 µM | > 100 µM | > 100 µM | > 100 µM | > 100 µM | > 100 µM | > 100 µM | > 100 µM | > 100 µM | – | – | – | – | – | – | – | – | – | – | –
